Calls of active or inactive are those of the source. The rule behind the calls is not given here.
Assays:
4T1 [1] = experiment: Antitumor activity against mouse 4T1 cells allografted in syngenetic BALB/c mouse assessed as tumor growth inhibition at 5 mg/kg, IT(Intratumoral) measured at day 11; type: functional, organism-based; details: time 11.0 day
[2] = molecular target: T1, Signal transducer and activator of transcription 1-alpha/beta (Homo sapiens) (UniProt P42224); experiment: Inhibition of IFN-gamma-induced Stat1 phopshorylation in human MDA-MB-231 cells at 2 uM measured after 30 mins by Western blot analysis; type: cell-based
T1 sequence (whole entry): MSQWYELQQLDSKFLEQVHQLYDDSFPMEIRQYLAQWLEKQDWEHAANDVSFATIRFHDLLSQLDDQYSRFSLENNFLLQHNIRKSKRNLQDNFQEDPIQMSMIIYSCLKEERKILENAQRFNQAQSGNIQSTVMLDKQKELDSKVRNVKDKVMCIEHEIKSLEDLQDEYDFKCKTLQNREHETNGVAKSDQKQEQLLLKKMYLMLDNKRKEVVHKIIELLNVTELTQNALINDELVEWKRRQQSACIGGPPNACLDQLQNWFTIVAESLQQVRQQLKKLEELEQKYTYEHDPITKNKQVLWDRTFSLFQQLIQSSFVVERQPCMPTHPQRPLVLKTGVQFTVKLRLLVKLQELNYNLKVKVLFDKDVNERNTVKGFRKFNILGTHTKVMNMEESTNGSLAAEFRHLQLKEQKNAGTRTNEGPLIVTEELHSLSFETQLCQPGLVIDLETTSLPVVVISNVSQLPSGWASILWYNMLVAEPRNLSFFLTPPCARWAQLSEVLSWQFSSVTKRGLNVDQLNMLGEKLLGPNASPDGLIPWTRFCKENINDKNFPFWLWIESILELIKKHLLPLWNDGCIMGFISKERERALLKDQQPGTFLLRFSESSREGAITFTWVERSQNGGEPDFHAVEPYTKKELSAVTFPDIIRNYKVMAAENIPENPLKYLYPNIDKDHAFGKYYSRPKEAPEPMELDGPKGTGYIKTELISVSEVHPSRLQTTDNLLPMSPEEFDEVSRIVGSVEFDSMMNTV

MDA-MB-231 [3] = experiment: Antiproliferative activity against human MDA-MB-231 cells transfected with LY6K-ShRNA2 at 100 uM assessed as induction of cells death and measured after 24 hrs by Cell Titer Blue assay relative to control; type: functional, cell-based
MDA-MB-231 [4] = experiment: Antiproliferative activity against human MDA-MB-231 cells at 100 uM assessed as induction of cells death and measured after 24 hrs by Cell Titer Blue assay relative to control; type: functional, cell-based
MDA-MB-231 [5] = experiment: Down-regulation of PD-L1 expression in human MDA-MB-231 cells at 2 uM measured after 30 mins by Western blot analysis; type: functional, cell-based
[6] = molecular target: Mothers against decapentaplegic homolog 2/homolog 3 (Homo sapiens) (UniProt P84022+Q15796); experiment: Inhibition of TGF-beta1-induced Smad2/3 phopshorylation in human MDA-MB-231 cells at 2 uM measured after 30 mins by Western blot analysis; type: cell-based
Mothers against decapentaplegic homolog 2/homolog 3 (Homo sapiens), sequence (P84022 whole entry, looked up): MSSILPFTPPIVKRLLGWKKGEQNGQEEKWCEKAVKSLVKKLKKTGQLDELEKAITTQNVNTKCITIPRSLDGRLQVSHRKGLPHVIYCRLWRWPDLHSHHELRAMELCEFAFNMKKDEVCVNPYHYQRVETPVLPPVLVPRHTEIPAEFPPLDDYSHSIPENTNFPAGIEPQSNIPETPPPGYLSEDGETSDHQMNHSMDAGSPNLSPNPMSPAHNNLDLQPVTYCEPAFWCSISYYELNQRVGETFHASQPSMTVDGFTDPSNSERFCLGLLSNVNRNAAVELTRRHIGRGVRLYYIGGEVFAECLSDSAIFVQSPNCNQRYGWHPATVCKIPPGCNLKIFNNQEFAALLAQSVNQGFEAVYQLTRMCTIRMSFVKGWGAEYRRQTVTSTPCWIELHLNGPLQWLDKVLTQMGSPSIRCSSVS
Mothers against decapentaplegic homolog 2/homolog 3 (Homo sapiens), sequence (Q15796 whole entry, looked up): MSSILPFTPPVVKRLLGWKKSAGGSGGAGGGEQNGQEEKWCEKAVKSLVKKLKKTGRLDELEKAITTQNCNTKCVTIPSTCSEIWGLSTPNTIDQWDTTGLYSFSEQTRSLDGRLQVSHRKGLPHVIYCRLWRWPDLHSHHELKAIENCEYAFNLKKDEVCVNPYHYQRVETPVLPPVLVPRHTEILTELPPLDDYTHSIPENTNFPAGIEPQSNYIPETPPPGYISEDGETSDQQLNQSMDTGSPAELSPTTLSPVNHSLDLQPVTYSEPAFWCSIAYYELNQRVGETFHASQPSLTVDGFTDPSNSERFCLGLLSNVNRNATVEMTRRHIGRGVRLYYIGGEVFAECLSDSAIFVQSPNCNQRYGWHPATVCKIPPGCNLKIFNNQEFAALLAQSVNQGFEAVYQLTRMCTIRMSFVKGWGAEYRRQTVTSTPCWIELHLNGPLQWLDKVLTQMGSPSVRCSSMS

BT-549 = experiment: Antiproliferative activity against human BT-549 cells after 24 hrs by Cell Titer Blue assay; type: functional, cell-based; details: BT-549, 24 h
MDA-MB-231 [7] = experiment: Antiproliferative activity against human MDA-MB-231 cells transfected with LY6K-ShRNA2 at 2 uM assessed as induction of cells death and measured after 24 hrs by Cell Titer Blue assay relative to control; type: functional, cell-based
4T1 [8] = experiment: Induction of apoptosis in mouse 4T1 cells at 0.1 to 5 uM assessed as activation of caspase-7 measured after 16 hrs by Western blot analysis; type: functional, cell-based; details: dose 0.1-5 µM
4T1 [9] = experiment: Antitumor activity against mouse 4T1 cells allografted in syngenetic BALB/c mouse assessed as tumor growth inhibition at 5 mg/kg, IT(Intratumoral) measured at day 3; type: functional, organism-based; details: time 3.0 day
4T1 [10] = experiment: Antitumor activity against mouse 4T1 cells xenografted mouse assessed as decrease in myeloid-derived suppressor cells (MDSCs) in peripheral blood at 50 mg/kg, iv; type: functional; parameters: scale not given: the % may be the effect or the level left
4T1 [11] = experiment: Induction of apoptosis in mouse 4T1 cells at 0.1 to 5 uM assessed as increase in PARP cleavage measured after 16 hrs by Western blot analysis; type: functional, cell-based; details: dose 0.1-5 µM
E0771 = experiment: Antitumor immunity in C57BL/6 mouse xenografted with mouse EO771 cells assessed as reduction in tumor growth at 10 mg/kg, ip administered every 3rd day; type: functional, organism-based; details: time 3.0 day
4T1 [12] = experiment: Effect on total Ly6K levels in mouse 4T1 cells at 0.1 to 5 […] measured by Western blotting analysis; type: functional, cell-based; details: dose 0.1-5 mM
OVCAR-8 = experiment: Antiproliferative activity against human OVCAR-8 cells after 24 hrs by Cell Titer Blue assay; type: functional, cell-based; details: OVCAR-8, 24 h
Hs-578T = experiment: Antiproliferative activity against human Hs-578T cells after 24 hrs by Cell Titer Blue assay; type: functional, cell-based
4T1 [13] = experiment: Down regulation of RhoA in mouse 4T1 cells at 0.1 to 5 uM measured after 16 hrs by Western blot analysis; type: functional, cell-based; details: dose 0.1-5 µM
MDA-MB-231 [14] = experiment: Antiproliferative activity against human MDA-MB-231 cells at 2 uM assessed as induction of cells death and measured after 24 hrs by Cell Titer Blue assay relative to control; type: functional, cell-based
4T1 [15] = experiment: Induction of autophagy in mouse 4T1 cells at 0.1 to 5 uM assessed as activation of LC3B measured after 16 hrs by Western blot analysis; type: functional, cell-based; details: dose 0.1-5 µM
MDA-MB-231 [16] = experiment: Antiproliferative activity against human MDA-MB-231 cells after 24 hrs by Cell Titer Blue assay; type: functional, cell-based; details: MDA-MB-231, 24 h
4T1 [17] = experiment: Antitumor activity against mouse 4T1 cells xenografted mouse assessed as decrease in Cd11b and Gr-1-dual positive […] in peripheral blood at 50 mg/kg, iv; type: functional, organism-based
4T1 [18] = experiment: Induction of apoptosis in mouse 4T1 cells at 0.1 to 5 uM assessed as activation of caspase-3 measured after 16 hrs by Western blot analysis; type: functional, cell-based; details: dose 0.1-5 µM

## Oc1ccc(Cc2ccc(Cl)cc2)c(O)c1
4T1 [1]
  Activity: Active
[2]
  Activity: inactive
MDA-MB-231 [3]
  Activity: Active
MDA-MB-231 [4]
  Activity: Active
MDA-MB-231 [5]
  Activity: inactive
[6]
  Activity: inactive

## CCS(=O)(=O)Nc1ccc(Nc2c3ccccc3nc3ccccc23)c(OC)c1
BT-549
  IC50: 7.65 µM
MDA-MB-231 [7]
  Activity: inactive
4T1 [8]
  Activity: Active
4T1 [9]
  Activity: Active
4T1 [10]
  Activity: 90%
4T1 [11]
  Activity: Active
E0771
  Activity: Active
4T1 [12]
  Activity: Active
OVCAR-8
  IC50: 4.17 µM
Hs-578T
  IC50: 7.31 µM
[2]
  Activity: Active
MDA-MB-231 [5]
  Activity: Active
4T1 [13]
  Activity: Active
MDA-MB-231 [14]
  Activity: Active
4T1 [15]
  Activity: Active
MDA-MB-231 [16]
  IC50: 5.68 µM
[6]
  Activity: Active
4T1 [17]
  Activity: Active
4T1 [18]
  Activity: Active

Reference: ChEMBL document CHEMBL5050862, “Compounds for inhibiting ly6k and methods of using same” (2021)
